“Also recorded” adds a separate entry of the source.
Legend:
VLDLr = biological target: T1, VLDLr (Homo sapiens, UniProt P98155); experiment: ELISA cell-free binding of RELN variants to VLDLr
T1 construct: purchased R&D 8444-VL
Experimental: (§1) Enzyme-linked immunosorbent assay (ELISA) was used to quantify changes in binding of RELN variants (media-derived full-length or CTR-RELN) to either VLDLr or ApoEr2 following an optimized version of a previously published protocol (6). Briefly, ELISA strips (DY008, R&D Systems) were coated with one ng/μL (100 μL/well) of VLDLr (8444-VL, R&D) or ApoEr2 (TP320903, OnGene) receptors diluted in 25 mM Tris HCl, 140 mM NaCl, […], two mM CaCl2), pH 7.4 (TBS-C buffer). After 18 h at four ° C. incubation, plates were blocked one h with three % BSA (22070008-6, Bioworld), 0.05% Tween-20 (Sigma Aldrich) TBS-C buffer. We assessed binding via incubation with 100 μL/well of serial dilutions of recombinant RELN protein (Ser1221-Gln2666, 8546-MR-050, R&D) or RELN variants in TBS-C buffer for one hour at room temperature. For detection, we used goat anti-mouse RELN primary antibody (LS-C793521-100, LS-Bio, 1:2,000, 100 μL/well) as primary antibody for one h at R.T. and (1:10,000; 100 μL/well, donkey anti-goat IgG H&L, HRP, ab6885, Abcam) as secondary antibody for 30 min. at R.T. Between each of the previous steps, plates were washed four times with TBS-C buffer (200 μL/well). Plates were washed three times prior to initiating the colorimetric reaction (DY008, R&D Systems). Stop solution (50 μL/well, DY008, R&D Systems) was added upon five min. incubation and the absorbance of the samples was measured at 450 nm using the Synergy 2 microplate reader (BioTek Instruments). Processing and analysis of the data was done using Gen5 1.11 software and GraphPad Prism, respectively.

APOER2 = biological target: T2, APOER2 (Homo sapiens, UniProt Q14114); experiment: ELISA cell-free binding of RELN variants to ApoEr2
T2 construct: purchased OnGene (so in the source)
T2 sequence (Q14114 33-963): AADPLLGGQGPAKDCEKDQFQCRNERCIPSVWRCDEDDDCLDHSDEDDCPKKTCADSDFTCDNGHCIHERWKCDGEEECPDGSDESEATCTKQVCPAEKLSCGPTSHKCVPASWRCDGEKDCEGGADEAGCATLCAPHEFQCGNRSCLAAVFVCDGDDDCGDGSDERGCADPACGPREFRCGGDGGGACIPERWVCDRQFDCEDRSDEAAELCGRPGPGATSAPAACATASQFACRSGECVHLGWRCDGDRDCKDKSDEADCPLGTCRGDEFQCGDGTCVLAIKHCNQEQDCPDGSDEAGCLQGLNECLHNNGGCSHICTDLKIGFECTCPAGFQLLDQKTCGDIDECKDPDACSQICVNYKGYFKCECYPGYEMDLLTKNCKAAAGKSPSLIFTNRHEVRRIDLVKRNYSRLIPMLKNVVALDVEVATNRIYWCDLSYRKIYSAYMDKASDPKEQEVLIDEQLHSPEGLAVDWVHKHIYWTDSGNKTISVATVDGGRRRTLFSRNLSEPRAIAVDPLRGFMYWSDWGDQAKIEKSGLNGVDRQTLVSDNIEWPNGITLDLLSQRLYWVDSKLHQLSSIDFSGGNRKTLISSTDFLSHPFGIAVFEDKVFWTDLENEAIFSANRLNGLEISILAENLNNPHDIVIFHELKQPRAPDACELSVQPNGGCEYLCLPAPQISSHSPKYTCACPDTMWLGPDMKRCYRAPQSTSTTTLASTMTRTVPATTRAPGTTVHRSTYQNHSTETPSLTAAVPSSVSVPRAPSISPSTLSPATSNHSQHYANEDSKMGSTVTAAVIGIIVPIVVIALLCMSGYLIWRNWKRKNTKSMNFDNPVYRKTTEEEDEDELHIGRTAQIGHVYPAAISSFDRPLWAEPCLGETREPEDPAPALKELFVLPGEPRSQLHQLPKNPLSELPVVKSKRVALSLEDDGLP
Experimental: as §1

[1] = Surface plasmon resonance (SPR) binding of CTR-RELN peptides to heparin-coated chip; conditions: SPR kinetic constants
Experimental: Surface plasmon resonance assay (SPR) was used for performing binding kinetics using a Biacore 3000 Instrument (GE Healthcare) at 25° C. following previously published protocols (7 24) as fee-for-service by Precision Antibody (Maryland, USA). Biotin-labeled heparin (B9806, Sigma Aldrich) was covalently linked to streptavidin-coated chip and unoccupied sites were blocked with biocytin. Antigen was flowed over the chip using a range of single analyte concentrations prepared in DPBS buffer and using a flow rate of 30 μL/min. Binding of antigen to the ligand was monitored in real time to obtain on (ka) and off (kd) rates. The equilibrium constant (KD) was calculated from the observed ka and kd. Accuracy of the SPR analysis was determined via Chi square (χ2) analysis as described in the statistical analysis section. We included in the analyses the WT and H3447R peptides and peptides with the hypothetical H3447D change ([…])(SEQ ID NO:57) and the H3447K change ([…])(SEQ ID NO:58), also produced and purified by Innovagen (Sweden).
Surface plasmon resonance assay (SPR) was used for performing binding kinetics using a Biacore 3000 Instrument (GE Healthcare) at 25° C. following previously published protocols 34 24 fee-for-service by Precision Antibody (Maryland, USA). Heparin was covalently linked to streptavidin coated chip at 13 response units (RU) concentration and unoccupied sites were blocked with biocytin. Antigen was flowed over the chip using a range of single analyte concentrations prepared in DPBS buffer and using a flow rate of 30 μL/min. Binding of antigen to the ligand was monitored in real time to obtain on (ka) and off (kd) rates. The equilibrium constant (KD) was calculated from the observed ka and kd. Accuracy of the SPR analysis was determined via Chi square (2) analysis as described in the statistical analysis section.

[2] = Heparin HPLC, peak retention time in KCl elution; format: binding; conditions: isocratic 1M KCl elution, long and short peptides
Experimental: […] 50 μl of 0.3 μg/μL uncleaved or cleaved WT Reelin peptide was used at 0.3 ml/min in 0.15MKCl, 10 mM PBS. 0-13.5 min: 0.15M KCl to load sample, 13.5-14.5 min: ramp to 0.5M KCl, 14.5-24.5 min: 0.5-1M KCl gradient (ramp), 24.5-45 min: 1M KCl (isocratic elution), 45-55 min: 1M KCl at 0.6 ml/min (wash), 55.0-56.0 min: ramp to 0.15M KCl at 0.3 ml/min, 56.0-59.0 min: 0.15M KCl (reset column). Fluorescence Intensities were measured at an excitation wavelength of 260 nm and emission wavelength of 290 nm, based on fluorescence properties of aromatic amino acids. To assess fluorescence properties of peptides, 15 ul of ˜0.6 ug/mL of peptide was diluted in 500 μL of 0.15MKCl, 10 mM PBS, and peak excitation and emission of peptides was calculated from the 2D graphical data.
The column chromatography method was adapted from previous research from the laboratory (2). Based on the column chromatography data, the initial protocol used a NaCl gradient from 0-1 M and a 5M salt wash to reset the HPLC column. However, the high salt gradient was corrosive to the HPLC machine parts. Therefore, KCl was considered because the […]. A lower molar concentration of a buffer with KCl could be used to disrupt heparin—Reelin CTR interactions compared to NaCl to help keep the HPLC pumps free of residual salts and potential corrosion. Since a lower concentration of salt was used, the amount of time needed at an […] hold of 1M KCl was extended until the peptide signal could not be detected before the column was equilibrated for the next sample.

Aβ42 = biological target: T3, Aβ42 (Homo sapiens, UniProt P05067); experiment: Thioflavin T (ThT) Aβ aggregation assay; format: biochemical; conditions: Aβ42 55 μM, 10 μM peptide; vs Aβ alone
T3 construct: SensoLyte ThT O-Amyloid (1-42) Aggregation kit
Experimental: Therefore, the ThT assay can be used to quantify AB aggregation using previously developed methods (40).
We incubated CTR-RELN with Aβ and monitored aggregation using a ThioflavinT fluorescence assay normalized to the maximum ThT emission of Aβ only. We also assayed Aβ in the presence of morin, a known inhibitor (41), as a […]. Long and short WT and H3447R RELN CTR peptides were included to better understand the potential role of the H3447R mutation in amyloid pathology (FIGS. 14 and 15. Negative controls included long and short RELN CTR peptides with neutrally charged AAs (histidines) in place of basic AAs in the alpha- and beta-GAG binding sites.
A Thioflavin T (ThT) assay was also performed using synthetic Reelin peptides to assess the differential effects of these proteins on Aβ42 aggregation in vitro using Thioflavin T (SensoLyte ThT O-Amyloid (1-42) Aggregation kit, catalog no. ΔS-72214). Aβ42 was added to a final concentration of 55 μM in solutions of 10 μM of Reelin peptide variants in a transparent, no-binding 96-well plate. Samples were then mixed with 2 mM Thioflavin T dye and fluorescence was read at excitation wavelength/emission wavelength (Ex/Em)=440/484 nm at intermittent time intervals over 2 h. The plate was kept at 37° C. with 15 s shaking between reads. […] In general, it appears that the RELN Cterm domain is highly unstructured. […] If the mini-RELN includes the C-term domain only without a receptor binding domain then the protection will not involve signaling, but will still involve direct interactions with tau. If the mini-RELN includes the C-term domain and the receptor binding domain, it will have at least two protective mechanisms, namely RELN signaling and direct interactions with tau.

NRP1 = biological target: T4, NRP1 (Homo sapiens, UniProt O14786); experiment: Bio-layer interferometry (BLI) of CTR-RELN-NRP-1 interactions; format: binding
T4 construct: purchased R&D 3870-N1-025
T4 sequence (O14786 22-644 isoform O14786-2 limits assumed): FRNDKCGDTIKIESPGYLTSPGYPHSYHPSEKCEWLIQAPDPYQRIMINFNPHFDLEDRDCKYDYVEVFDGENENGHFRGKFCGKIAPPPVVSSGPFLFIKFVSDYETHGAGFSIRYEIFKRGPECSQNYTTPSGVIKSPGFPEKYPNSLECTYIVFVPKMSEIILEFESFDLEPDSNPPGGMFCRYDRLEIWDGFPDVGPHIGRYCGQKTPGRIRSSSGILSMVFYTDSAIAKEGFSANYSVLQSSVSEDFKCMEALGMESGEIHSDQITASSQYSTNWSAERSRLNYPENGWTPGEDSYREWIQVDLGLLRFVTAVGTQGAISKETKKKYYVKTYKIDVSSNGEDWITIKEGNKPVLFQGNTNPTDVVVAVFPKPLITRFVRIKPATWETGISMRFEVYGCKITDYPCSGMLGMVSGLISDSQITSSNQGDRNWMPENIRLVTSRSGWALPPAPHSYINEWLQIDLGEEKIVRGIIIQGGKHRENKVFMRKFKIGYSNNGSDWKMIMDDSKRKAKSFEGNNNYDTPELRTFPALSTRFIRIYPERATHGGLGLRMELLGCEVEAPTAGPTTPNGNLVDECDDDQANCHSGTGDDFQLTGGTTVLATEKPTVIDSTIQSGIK
Experimental: (§2) Bio-layer interferometry (BLI) was additionally used to assess NRP1-protein kinetics at 30° C. and 1000 rpm agitation. 1 mg/mL NRP1 (R&D 3870-N1-025) was biotinylated at a 1:2 molar ratio, desalted, and immobilized on the SA biosensor tip (Pall ForteBio) surface. This was followed by 1) 180 seconds baseline buffer diluent, 2) loading of the ligand (NRP1), 3) 180 seconds baseline buffer diluent, 4) 240 seconds association (analyte), and 5) 300 seconds disassociation in assay buffer. Assay buffer: SD Buffer (pH7.4 PBS, 0.05% tween20, 0.01% BSA).
The experimental data were fit with the 1:1 binding model and analyzed with global fitting using Octet Data Analysis software to calculate KD.
as §2, with “was” for “was additionally”, “agitation using previously published methods.” for “agitation.”

T3 sequence (P05067 672-713 limits assumed): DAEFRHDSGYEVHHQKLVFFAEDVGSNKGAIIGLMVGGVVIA

| Substance | heparin affinity/interaction relative to WT, in words [1] | peak retention time on heparin HPLC [2] | Aβ aggregation (ThT fluorescence) (Aβ42) | other results |
| --- | --- | --- | --- | --- |
| RELN WT: full-length murine recombinant RELN, wild type |  |  |  | binding to VLDLr (VLDLr): did not differ; binding to APOER2 (APOER2): did not differ |
| RKQNYMMNFSRQHGLRDFYNRRRRSLRRYP [H3447D long] | reduced heparin interactions | significantly less interaction; also recorded: earlier peak retention time | similarly decrease aggregation |  |
| RKQNYMMNFSRQHGLRKFYNRRRRSLRRYP [H3447K long] | minimal effects | increased later peak retention times | similarly decrease aggregation |  |
| Vascular endothelial growth factor [VEGF, reference compound] |  |  |  | ka (NRP1; immobilized biotinylated NRP1): 272000 M⁻¹ s⁻¹; kd (NRP1; immobilized biotinylated NRP1): 0.0015 s⁻¹; Kd (NRP1; immobilized biotinylated NRP1, 30° C., 1:1 model): 5.53 nM |

Source: patent publication US20260139017A1, “COMPOSITIONS AND METHODS USING REELIN IN ALZHEIMER'S DISEASE” (The General Hospital Corporation, priority 2022, published 2026)
